{
  "source": "ChEMBL document CHEMBL3244275",
  "about": "“Synthesis and antitumor activity of 1,2-dihydro-1-(2-deosy-beta-D-erythro-pentofuranosyl)-2-oxo-5-methylpyrazine 4-oxide, a structural analogue of thymidine” (J Med Chem, 1977)",
  "key": {"[1]": {"tested_on": "L1210", "assay": "Growth inhibition of mouse L1210 cells at 9 x 10^-7 M after 40 hrs by trypan blue exclusion assay", "type": "functional", "conditions": "L1210, 40 h, read-out: GI"}, "[2]": {"tested_on": "Enterococcus faecium", "assay": "Antibacterial activity against Streptococcus faecium at 8 x 10^-5 M", "type": "functional", "conditions": "read-out: GI"}, "[3]": {"tested_on": "Escherichia coli", "assay": "Antibacterial activity against Escherichia coli at 1 x 10^-3 M", "type": "functional", "conditions": "read-out: GI"}, "[4]": {"tested_on": "Escherichia coli", "assay": "Antibacterial activity against Escherichia coli K-12 at 1 x 10^-3 M", "type": "functional", "conditions": "read-out: GI"}, "[5]": {"tested_on": "L1210", "assay": "Antitumor activity against mouse L1210 cells allografted in DBA/2 Ha mouse assessed as increase in life span of host at 100 mg/kg, ip qd for 6 days relative to control", "type": "functional", "conditions": "route intraperitoneal"}, "[6]": {"tested_on": "L1210", "assay": "Antitumor activity against mouse L1210 cells allografted in DBA/2 Ha mouse assessed as increase in life span of host at 200 mg/kg, ip qd for 6 days relative to control", "type": "functional", "conditions": "route intraperitoneal"}, "[7]": {"tested_on": "L1210", "assay": "Antitumor activity against mouse L1210 cells allografted in DBA/2 Ha mouse assessed as increase in life span of host at 400 mg/kg, ip qd for 6 days relative to control", "type": "functional", "conditions": "route intraperitoneal"}, "[8]": {"tested_on": "Mus musculus", "assay": "Toxicity in mouse L1210 cells allografted DBA/2 Ha mouse assessed as overt signs of toxicity at 100 to 400 mg/kg, ip qd for 6 days", "type": "organism-based", "design": "dose 100-400 mg/kg, route intraperitoneal", "conditions": "in vivo, 144 h"}, "[9]": {"tested_on": "L1210", "assay": "Growth inhibition of mouse L1210 cells at inhibitor/thymidine ratio 50 after 40 hrs by trypan blue exclusion assay", "type": "functional"}, "[10]": {"tested_on": "L1210", "assay": "Growth inhibition of mouse L1210 cells at inhibitor/deoxyuridine ratio 2 after 40 hrs by trypan blue exclusion assay", "type": "functional"}, "[11]": {"tested_on": "L1210", "assay": "Growth inhibition of mouse L1210 cells at inhibitor/deoxycytidine ratio 0.2 after 40 hrs by trypan blue exclusion assay", "type": "functional"}, "[12]": {"tested_on": "L1210", "assay": "Growth inhibition of mouse L1210 cells at inhibitor/uridine ratio 0.04 after 40 hrs by trypan blue exclusion assay", "type": "functional"}, "[13]": {"tested_on": "L1210", "assay": "Growth inhibition of mouse L1210 cells at inhibitor/cytidine ratio 0.02 after 40 hrs by trypan blue exclusion assay", "type": "functional"}},
  "data": [
    {"compound": "Cc1cn([C@H]2C[C@H](O)[C@@H](CO)O2)c(=O)c[n+]1[O-]", "values": [
      {"measurement": "inhibition of growth at 0.9 µM", "setting": "[1]", "value": 50, "unit": "%"},
      {"measurement": "inhibition of growth at 80 µM", "setting": "[2]", "value": 50, "unit": "%"},
      {"measurement": "inhibition of growth at 1000 µM", "setting": "[3]", "value": 20, "unit": "%"},
      {"measurement": "inhibition of growth at 1000 µM", "setting": "[4]", "value": 30, "unit": "%"},
      {"measurement": "Activity", "setting": "[5]", "value": 18, "unit": "%"},
      {"measurement": "Activity", "setting": "[6]", "value": 30, "unit": "%"},
      {"measurement": "Activity", "setting": "[7]", "value": 55, "unit": "%"},
      {"measurement": "Activity", "setting": "[8]", "value": "Non-toxic"},
      {"measurement": "growth inhibition (GI)", "setting": "[9]", "value": 50, "unit": "%"},
      {"measurement": "growth inhibition (GI)", "setting": "[10]", "value": 50, "unit": "%"},
      {"measurement": "growth inhibition (GI)", "setting": "[11]", "value": 50, "unit": "%"},
      {"measurement": "growth inhibition (GI)", "setting": "[12]", "value": 50, "unit": "%"},
      {"measurement": "growth inhibition (GI)", "setting": "[13]", "value": 50, "unit": "%"}
    ]}
  ]
}
